Source: patent US20060069132A1, “Azolecarboxamide herbicides” (priority 2004, published 2006)

Legend:
johnsongrass = test: Test C pre-/postemergence herbicide test; type: in vivo, Sorghum halepense
Procedure, shortened: (§1)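 Pre/post spray; non-phytotoxic solvent + surfactant. Post-timing 1–4 leaves, 2–18 cm. Read-out: visual % control vs untreated, day 12–14, greenhouse.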

pigweed = test: Test C pre-/postemergence herbicide test; type: in vivo, Amaranthus retroflexus; conditions: for Plant response rating (0 = no effect, 100 = complete control), Pigweed: 125 g ai/ha
Procedure, shortened: as §1

large crabgrass = test: Test C pre-/postemergence herbicide test; type: in vivo, Digitaria sanguinalis
Procedure, shortened: as §1

soybean = test: Test C pre-/postemergence herbicide test; type: in vivo, Glycine max; conditions: preemergence; for Plant response rating (0 = no effect, 100 = complete control), Soybean: 125 g ai/ha
Procedure, shortened: as §1

goosegrass = test: Test C pre-/postemergence herbicide test; type: in vivo, Eleusine indica
Procedure, shortened: as §1

rice = test: Test C flooded paddy test; type: in vivo, Oryza sativa
Procedure, shortened: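 Injury scored visually against controls on a 0 (no effect) to 100 (complete control) scale, 12 to 14 days after treatment in greenhouse. Flooded paddy plants treated at 2-leaf stage; postemergence plants at 1- to 4-leaf stage, 2 to 18 cm tall.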

Surinam grass = test: Test C pre-/postemergence herbicide test; type: in vivo, Urochloa decumbens; conditions: for Plant response rating (0 = no effect, 100 = complete control), Surinam Grass: 125 g ai/ha
Procedure, shortened: as §1

kochia = test: Test C pre-/postemergence herbicide test; type: in vivo, Kochia scoparia
Procedure, shortened: as §1

velvetleaf = test: Test C pre-/postemergence herbicide test; type: in vivo, Abutilon theophrasti
Procedure, shortened: as §1

[1] = 62 g ai/ha, preemergence, scale 0 to 100
[2] = 250 g ai/ha, scale 0-100, preemergence
[3] = 500 g ai/ha, scale 0 to 100 (0 no effect, 100 complete control), visual, 12 to 14 days, preemergence
[4] = 500 g ai/ha, scale 0 to 100 (0 no effect, 100 complete control), visual, 12 to 14 days
[5] = Postemergence, 250 g ai/ha, scale 0 to 100, 0 no effect, 100 complete control
[6] = postemergence, 125 g ai/ha, scale 0 to 100
[7] = postemergence, 62 g ai/ha, scale 0 to 100

CCc1nn(C(C)(C)C)nc1C(=O)Nc1cccc(C(=S)N(C)C)c1 [Compound 395]
75: Plant response rating, Soybean (soybean; 62 g ai/ha, scale 0 to 100) | Plant response rating, Rice (rice; 500 g ai/ha, visual rating after 12 to 14 days, scale 0 to 100 (0 no effect, 100 complete control))
100: Plant response rating (0 = no effect, 100 = complete control), Johnsongrass (johnsongrass; 125 g ai/ha, preemergence) | Plant response rating, Johnsongrass (johnsongrass; [2]) | Plant response rating, Johnsongrass (johnsongrass; [3]) | Plant response rating, Pigweed (pigweed; [1]) | Plant response rating (0 = no effect, 100 = complete control), Pigweed (pigweed; preemergence) | Plant response rating, Pigweed (pigweed; [2]) | Plant response rating, Pigweed (pigweed; [3]) | Plant response rating, Crabgrass, Large (large crabgrass; [1]) | Plant response rating (0 = no effect, 100 = complete control), Crabgrass, Large (large crabgrass; 125 g ai/ha, preemergence) | Plant response rating, Crabgrass, Large (large crabgrass; [2]) | Plant response rating, Crabgrass, Large (large crabgrass; [3]) | Plant response rating, Soybean (soybean; 250 g ai/ha, scale 0-100) | Plant response rating, Soybean (soybean; [4]) | Plant response rating, Goosegrass (goosegrass; [2]) | Plant response rating, Goosegrass (goosegrass; [3]) | Plant response rating (0 = no effect, 100 = complete control), Surinam Grass (Surinam grass; preemergence) | Plant response rating, Surinam Grass (Surinam grass; [2]) | Plant response rating, Surinam Grass (Surinam grass; [3]) | Plant response rating, Kochia (kochia; [1]) | Plant response rating (0 = no effect, 100 = complete control), Kochia (kochia; 125 g ai/ha, preemergence) | Plant response rating, Kochia (kochia; [2]) | Plant response rating, Kochia (kochia; [3]) | Plant response rating (0 = no effect, 100 = complete control), Velvetleaf (velvetleaf; 125 g ai/ha, preemergence) | Plant response rating, Velvetleaf (velvetleaf; [2]) | Plant response rating, Velvetleaf (velvetleaf; [3])
85: Plant response rating (0 = no effect, 100 = complete control), Soybean (soybean)
95: Plant response rating, Johnsongrass (johnsongrass; [1]) | Plant response rating, Goosegrass (goosegrass; [1]) | Plant response rating (0 = no effect, 100 = complete control), Goosegrass (goosegrass; 125 g ai/ha, preemergence) | Plant response rating, Surinam Grass (Surinam grass; [1]) | Plant response rating, Velvetleaf (velvetleaf; [1])
70: Rice plant response rating (rice; 62 g ai/ha, scale 0 to 100) | Rice plant response rating (rice; 125 g ai/ha, scale 0 to 100 (0 no effect, 100 complete control)) | Rice plant response rating (rice; 250 g ai/ha, scale of 0 to 100, 0 is no effect, 100 is complete control)

C=CCNC(=O)c1cccc(NC(=O)c2nn(C(C)(C)C)nc2CC)c1 [Compound 414]
95: Plant response rating, Johnsongrass (johnsongrass; [1]) | Plant response rating (0 = no effect, 100 = complete control), Johnsongrass (johnsongrass; 125 g ai/ha, preemergence) | Plant response rating, Goosegrass (goosegrass; [1])
65: Plant response rating, Soybean (soybean; [4])
100: Plant response rating, Johnsongrass (johnsongrass; [2]) | Plant response rating, Johnsongrass (johnsongrass; [3]) | Plant response rating, Pigweed (pigweed; [1]) | Plant response rating (0 = no effect, 100 = complete control), Pigweed (pigweed; preemergence) | Plant response rating, Pigweed (pigweed; [3]) | Plant response rating, Crabgrass, Large (large crabgrass; [1]) | Plant response rating (0 = no effect, 100 = complete control), Crabgrass, Large (large crabgrass; 125 g ai/ha, preemergence) | Plant response rating, Crabgrass, Large (large crabgrass; [2]) | Plant response rating, Crabgrass, Large (large crabgrass; [3]) | Plant response rating (0 = no effect, 100 = complete control), Goosegrass (goosegrass; 125 g ai/ha, preemergence) | Plant response rating, Goosegrass (goosegrass; [2]) | Plant response rating, Goosegrass (goosegrass; [3]) | Plant response rating, Surinam Grass (Surinam grass; [3]) | Plant response rating, Kochia (kochia; [3]) | Plant response rating (0 = no effect, 100 = complete control), Velvetleaf (velvetleaf; 125 g ai/ha, preemergence) | Plant response rating, Velvetleaf (velvetleaf; [3])
90: Plant response rating, Velvetleaf (velvetleaf; [1])
75: Plant response rating (0 = no effect, 100 = complete control), Kochia (kochia; 125 g ai/ha, preemergence)
60: Plant response rating, Kochia (kochia; [1])
0: Plant response rating, Soybean (soybean; 62 g ai/ha, scale 0 to 100) | Plant response rating, Surinam Grass (Surinam grass; [1])
80: Plant response rating (0 = no effect, 100 = complete control), Surinam Grass (Surinam grass; preemergence) | Plant response rating, Kochia (kochia; [2])
20: Plant response rating (0 = no effect, 100 = complete control), Soybean (soybean)

CCOC(=O)c1cccc(NC(=O)c2nn(C(C)(C)CC)nc2CC)c1 [Compound 375]
70: Plant response rating (0 = no effect, 100 = complete control), Crabgrass, Large (large crabgrass; 125 g ai/ha, preemergence) | Plant response rating, Kochia (kochia; [7])
85: Plant response rating, Kochia (kochia; [6]) | Plant response rating, Velvetleaf (velvetleaf; [6])
80: Plant response rating, Pigweed (pigweed; [7]) | Plant response rating, Surinam Grass (Surinam grass; [2]) | Plant response rating, Kochia (kochia; [1]) | Plant response rating, Velvetleaf (velvetleaf; [2])
75: Plant response rating (0 = no effect, 100 = complete control), Surinam Grass (Surinam grass; preemergence)
30: Plant response rating (0 = no effect, 100 = complete control), Velvetleaf (velvetleaf; 125 g ai/ha, preemergence)
50: Plant response rating, Pigweed (pigweed; [1]) | Plant response rating (0 = no effect, 100 = complete control), Pigweed (pigweed; preemergence) | Plant response rating, Goosegrass (goosegrass; [5])
55: Plant response rating, Surinam Grass (Surinam grass; [1])
15: Plant response rating, Goosegrass (goosegrass; [6]) | Plant response rating, Goosegrass (goosegrass; [7])
100: Plant response rating, Pigweed (pigweed; [2]) | Plant response rating, Crabgrass, Large (large crabgrass; [2]) | Plant response rating (0 = no effect, 100 = complete control), Goosegrass (goosegrass; 125 g ai/ha, preemergence) | Plant response rating, Goosegrass (goosegrass; [2]) | Plant response rating (0 = no effect, 100 = complete control), Kochia (kochia; 125 g ai/ha, preemergence) | Plant response rating, Kochia (kochia; [2])
10: Plant response rating, Johnsongrass (johnsongrass; [5])
60: Plant response rating, Crabgrass, Large (large crabgrass; [1]) | Plant response rating, Goosegrass (goosegrass; [1]) | Plant response rating, Velvetleaf (velvetleaf; [7])
20: Plant response rating, Crabgrass, Large (large crabgrass; [5]) | Plant response rating, Crabgrass, Large (large crabgrass; [6]) | Plant response rating, Surinam Grass (Surinam grass; [7])
0: Plant response rating, Johnsongrass (johnsongrass; [1]) | Plant response rating, Soybean (soybean; 62 g ai/ha, scale 0 to 100) | Plant response rating (0 = no effect, 100 = complete control), Soybean (soybean) | Plant response rating, Soybean (soybean; 250 g ai/ha, scale 0-100) | Plant response rating, Velvetleaf (velvetleaf; [1])
5: Plant response rating (0 = no effect, 100 = complete control), Johnsongrass (johnsongrass; 125 g ai/ha, preemergence) | Plant response rating, Johnsongrass (johnsongrass; [2]) | Plant response rating, Johnsongrass (johnsongrass; [6]) | Plant response rating, Johnsongrass (johnsongrass; [7]) | Plant response rating, Crabgrass, Large (large crabgrass; [7])
90: Plant response rating, Kochia (kochia; [5])
